Here are results for ten compounds from article PMC9794698, “Structure optimization of new tumor-selective Passerini α-acyloxy carboxamides as Caspase-3/7 activators” (Scientific Reports, 2022).

The test system of one data set is Wi-38 cells. In words: MTT cytotoxicity assay, normal human fibroblasts. In kind it is cell-based. Conditions: 72 h, mean ± SEM; for MNTC: dose at 100% cell viability, read-out: Wi-38 EC100. The method, then: (§1) Wi-38, Caco-2 and HepG-2 cells were cultured in DMEM medium-contained 10% FBS, seeded as 5 × 10^3 cells per well in 96-well cell culture plate and incubated at 37 °C in 5% CO2 incubator. After 24 h, serial concentrations of the test compounds were incubated with cells for 72 h. Cell viability was assayed via MTT protocol[27] (Supplementary data). IC50 values of the synthesized compounds were measured via the Graphpad Instat software. Morphological changes were examined using phase contrast inverted microscope with a digital camera (Olympus, Japan). […]
(§2) Normal human lung fibroblast Wi-38 cell line was used to detect cytotoxicity of the studied compounds.
Wi-38 cell line was cultured in DMEM medium-contained 10% fetal bovine serum (FBS), seeded as 5x10^3 cells per well in 96-well cell culture plate and incubated at 37 °C in 5% CO2 incubator. After 24 h for cell attachment, serial concentrations of the synthetic compounds and standard chemotherapy (5-fluorouracil) were incubated with Wi-38 cells for 72 h. Cell viability was assayed by MTT method Twenty microliters of 5 mg/ml MTT (Sigma, USA) was added to each well and the plate was incubated at 37 °C for 3 h. Then MTT solution was removed, 100 µl DMSO was added, and the absorbance of each well was measured with a microplate reader (BMG LabTech, Germany) at 570 nm. The dose (EC50 and EC100) values (at 50% and100% cell viability, respectively) of the tested compounds was estimated by the Graphpad Instat software. […]
For orientation: Formazan colour is commonly taken as a measure of viable cells.

For another data set, the system named is Caco-2 cells. The data set is described as follows: MTT cytotoxicity assay, colorectal cancer cells. The class given is cell-based, human. Conditions: for IC50: Homo sapiens, Caco-2, MTT, 72 h, mean ± SEM, read-out: Caco-2 IC50 (converted); for Caco-2 SI: ratio of IC50 against normal cells (Wi-38) to IC50 against Caco-2. The method, then:
as §1, §2
(§3) Wi-38 cell line was cultured in DMEM medium-contained 10% fetal bovine serum (FBS), seeded as 5x10^3 cells per well in 96-well cell culture plate and incubated at 37 °C in 5% CO2 incubator. After 24 h for cell attachment, serial concentrations of the synthetic compounds and standard chemotherapy (5-fluorouracil) were incubated with Wi-38 cells for 72 h. Cell viability was assayed by MTT method Twenty microliters of 5 mg/ml MTT (Sigma, USA) was added to each well and the plate was incubated at 37 °C for 3 h. Then MTT solution was removed, 100 µl DMSO was added, and the absorbance of each well was measured with a microplate reader (BMG LabTech, Germany) at 570 nm. The dose (EC50 and EC100) values (at 50% and100% cell viability, respectively) of the tested compounds was estimated by the Graphpad Instat software.
(§4) The anticancer effect of the above-mentioned compounds was assayed using human colon cancer cell line (Caco-2) and liver cancer cell line (HepG-2) that were cultured in DMEM (Lonza, USA) supplemented with 10%
(§5) FBS. All cancer cells (5x10^3 cells/well) were seeded in sterile 96-well plates. After 24h, serial concentrations of the tested compounds and 5-fluorouracil (Fu) were incubated with two cancer cell lines for 72 h at 37 °C in 5% CO2 incubator. MTT method was done as described above. The half maximal inhibitory concentration (IC50) values were calculated using the Graphpad Instat software. Furthermore, cellular morphological changes before […]
(§6) contrast inverted microscope with a digital camera (Olympus, Japan).

The next data set deals with HepG-2 cells. The data set is described as follows: MTT cytotoxicity assay, liver cancer cells. In kind it is cell-based, human. Conditions: for IC50: Homo sapiens, HepG2, MTT, 72 h, mean ± SEM, read-out: HepG-2 IC50; for HepG-2 SI: ratio of IC50 against normal cells (Wi-38) to IC50 against HepG-2. The method, then:
as §1, §2, §3, §4, §5, §6

In general, IC50 refers to the concentration at which inhibition is half-maximal. For orientation: melting point means the temperature, or range, at which the solid turns liquid.

Compound `CCOC(=O)c1ccc(NC(=O)C2(OC(=O)c3ccc4ccccc4n3)CCCCC2)cc1` [7b, 1-((4-(Ethoxycarbonyl)phenyl)carbamoyl)cyclohexyl quinoline-2-carboxylate] yielded a melting point of 103 to 105 °C. Further, in the data set on Wi-38 cells, the MNTC amounted to 1790 ± 111 nM and the IC50 stood at 18200 ± 2220 nM. In the data set with Caco-2 cells, the IC50 is 172 ± 22 nM and the “Caco-2 SI” value stood at 105.697. Besides, in the data set with HepG-2 cells, the IC50 stood at 228 ± 27 nM and the “HepG-2 SI” value stood at 79.736.
As to `CCOC(=O)c1ccc(NC(=O)C2(OC(=O)c3ccccc3)CCCCC2)cc1` [7c, Ethyl-4-(1-(benzoyloxy)cyclohexanecarboxamido)benzoate], the melting point lay in the range of 140 to 142 °C. Also, in the data set on Wi-38 cells, the MNTC is 2100 ± 92 nM and the IC50 was found to be 7700 ± 321 nM. Further, in the data set on Caco-2 cells, the IC50 was 276 ± 34 nM and the “Caco-2 SI” value was 27.909. In addition, in the data set on HepG-2 cells, the IC50 was found to be 184 ± 9 nM and the “HepG-2 SI” value turned out to be 41.864.
Consider `CCOC(=O)c1ccc(NC(=O)C2(OC(=O)c3ccc(Cl)cc3)CCCCC2)cc1` [7d, 1-((4-(Ethoxycarbonyl)phenyl)carbamoyl)cyclohexyl 4-chlorobenzoate], for which the melting point was 193 to 195 °C. Further, in the data set on Wi-38 cells, the MNTC stood at 1700 ± 165 nM and the IC50 was 24800 ± 10200 nM. Moreover, in the data set on Caco-2 cells, the 50% inhibitory concentration (IC50) was 201 ± 19 nM and the “Caco-2 SI” value was 123.174. Moreover, in the data set on HepG-2 cells, the IC50 was 407 ± 16 nM and the “HepG-2 SI” value is given as 60.830.
For the compound `CCOC(=O)c1ccc(NC(=O)C2(OC(=O)c3ccccc3Cl)CCCCC2)cc1` [7e, 1-((4-(Ethoxycarbonyl)phenyl)carbamoyl)cyclohexyl 2-chlorobenzoate], the melting point fell in the range of 130 to 132 °C. Further, in the data set with Wi-38 cells, the MNTC came out at 1780 ± 169 nM and the 50% inhibitory concentration (IC50) is 19800 ± 1020 nM. In the data set on Caco-2 cells, the 50% inhibitory concentration (IC50) is 117 ± 10 nM and the “Caco-2 SI” value amounted to 168.820. Moreover, in the data set with HepG-2 cells, the IC50 was found to be 130 ± 9 nM and the “HepG-2 SI” value turned out to be 151.938.
`CCOC(=O)c1ccc(NC(=O)C2(OC(=O)c3ccccc3I)CCCCC2)cc1` [7f, 1-((4-(Ethoxycarbonyl)phenyl)carbamoyl)cyclohexyl 2-iodobenzoate]: the melting point was in the range of 148 to 150 °C. Moreover, in the data set on Wi-38 cells, the MNTC worked out at 967 ± 26 nM and the 50% inhibitory concentration (IC50) was 17100 ± 1690 nM. Further, in the data set on Caco-2 cells, the half-maximal inhibitory concentration (IC50) was 129 ± 28 nM and the “Caco-2 SI” value is given as 132.209. Besides, in the data set with HepG-2 cells, the IC50 stood at 147 ± 46 nM and the “HepG-2 SI” value came to 116.020.
Consider `CCOC(=O)c1ccc(NC(=O)C2(OC(=O)C=Cc3ccc(C(F)(F)F)cc3)CCCCC2)cc1` [7h, Ethyl-4-(1-((3-(4-(trifluoromethyl)phenyl)acryloyl)oxy)cyclohexanecarboxamido)benzoate], for which the melting point lay in the range of 145 to 147 °C. For the same compound, in the data set on Wi-38 cells, the MNTC worked out at 1650 ± 39 nM and 18700 ± 2040 nM corresponded to half-maximal inhibition (IC50). Also, in the data set with Caco-2 cells, the IC50 is 138 ± 14 nM and the “Caco-2 SI” value was determined as 135.340. For the same compound, in the data set with HepG-2 cells, the IC50 came out at 259 ± 73 nM and the “HepG-2 SI” value worked out at 72.111.
In turn, `CCOC(=O)c1ccc(NC(=O)C2(OC(=O)CNC(=O)c3ccc(NC(=O)OC(C)(C)C)cc3)CCCCC2)cc1` [7i, Ethyl-4-(1-(2-(4-((tert-butoxycarbonyl)amino)benzamido)acetoxy)cyclohexanecarboxamido) benzoate] gave a melting point of 115 to 117 °C. In addition, in the data set on Wi-38 cells, the MNTC was determined as 1630 ± 259 nM and the 50% inhibitory concentration (IC50) came to 22800 ± 3100 nM. Moreover, in the data set with Caco-2 cells, the IC50 was 132 ± 50 nM and the “Caco-2 SI” value stood at 172.765. In the data set on HepG-2 cells, the half-maximal inhibitory concentration (IC50) is 127 ± 44 nM and the “HepG-2 SI” value was determined as 179.566.
`CCOC(=O)c1ccc(NC(=O)C2(OC(=O)CS)CCCCC2)cc1` [7k, Ethyl-4-(1-(2-mercaptoacetoxy)cyclohexane-1-carboxamido)benzoate] yielded a melting point of 108 to 110 °C. Moreover, in the data set on Wi-38 cells, the MNTC worked out at 1465 ± 10 nM and the half-inhibitory concentration (IC50) stood at 9670 ± 102 nM. Besides, in the data set on Caco-2 cells, the 50% inhibitory concentration (IC50) is 140 ± 3 nM and the “Caco-2 SI” value is given as 69.057. In addition, in the data set with HepG-2 cells, the concentration for half-maximal inhibition (IC50) was found to be 141 nM and the “HepG-2 SI” value turned out to be 68.567.
`CCOC(=O)c1ccc(NC(=O)C2(O)CCCCC2)cc1` [compound 9, Ethyl 4-(1-hydroxycyclohexanecarboxamido)benzoate] came in with a melting point of 160 to 163 °C. In addition, in the data set on Wi-38 cells, the MNTC is 3220 ± 217 nM and it took 16800 ± 3010 nM to reach half-maximal inhibition (IC50). In the data set on Caco-2 cells, the half-inhibitory concentration (IC50) was 154 ± 7 nM and the “Caco-2 SI” value is 109.272. Further, in the data set on HepG-2 cells, the IC50 came to 150 ± 4 nM and the “HepG-2 SI” value is listed as 112.186.
On to `CCOC(=O)c1ccc(N2C(=O)OC3(CCCCC3)C2=O)cc1` [compound 11, Ethyl-4-(2,4-dioxo-1-oxa-3-azaspiro[4.5]decan-3-yl)benzoate], for which the melting point lay in the range of 143 to 145 °C. In addition, in the data set with Wi-38 cells, the MNTC was 4940 ± 1540 nM and the concentration for half-maximal inhibition (IC50) was 9920 ± 1610 nM. For the same compound, in the data set with Caco-2 cells, the concentration for half-maximal inhibition (IC50) was 239 ± 71 nM and the “Caco-2 SI” value was determined as 41.510. Also, in the data set with HepG-2 cells, the IC50 stood at 209 ± 17 nM and the “HepG-2 SI” value is 47.468.
